Laboratory results: publication PMC4700278, “Molecular and Biochemical Analysis of the Estrogenic and Proliferative Properties of Vitamin E Compounds” (Frontiers in Oncology, 2016)

How the values were obtained:
ERα [1] = target: T1, ERα (Homo sapiens, UniProt P03372); assay: ERE-luciferase reporter assay in HELN-ERα cells; type: cell-based; parameters: endogenous in cells; host or cells: MCF-7; settings: 500 μM
T1 sequence (P03372 1-595): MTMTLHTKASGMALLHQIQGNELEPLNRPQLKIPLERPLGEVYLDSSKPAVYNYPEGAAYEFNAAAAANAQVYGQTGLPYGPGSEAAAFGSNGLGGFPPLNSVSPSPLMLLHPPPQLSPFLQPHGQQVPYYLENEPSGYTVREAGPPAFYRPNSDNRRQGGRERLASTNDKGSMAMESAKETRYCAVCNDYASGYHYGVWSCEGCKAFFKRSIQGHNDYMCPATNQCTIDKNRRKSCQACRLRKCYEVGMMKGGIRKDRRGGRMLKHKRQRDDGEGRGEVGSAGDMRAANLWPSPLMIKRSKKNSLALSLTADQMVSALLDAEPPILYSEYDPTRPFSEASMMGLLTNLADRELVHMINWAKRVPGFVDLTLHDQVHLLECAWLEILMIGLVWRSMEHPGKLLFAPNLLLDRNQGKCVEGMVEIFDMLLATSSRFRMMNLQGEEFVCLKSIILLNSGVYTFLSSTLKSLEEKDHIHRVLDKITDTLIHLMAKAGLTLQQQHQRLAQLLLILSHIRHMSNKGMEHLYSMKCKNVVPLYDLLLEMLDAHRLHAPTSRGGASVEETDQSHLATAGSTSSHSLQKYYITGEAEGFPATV
Description: MELN cells were established by transfecting ER(+) MCF-7 cells with the ERE-β-globin-tk-Luc-SV-Neo plasmid ([36]). HELN cells were generated by transfection of ER(−) HeLa cells with this plasmid. The HELN-ERα, HELN-ERβ, HELN-ΔAB-ERα, and HELN-ΔAB-ERβ cell lines then underwent a second transfection with the corresponding pSG5-puro plasmids (pSG5-ERα-puro, pSG5-ERβ-puro, pSG5-ΔAB-ERα-puro, and pSG5-ΔAB-ERβ-puro, respectively) and expressed wild-type or mutated ERα or ERβ ([39], [40]). […] Luciferase activity was measured using the luciferase assay reagent (Promega), according to the manufacturer’s instructions. Protein concentrations were measured using the Bradford technique ([41]) to normalize the luciferase activity data. For each condition, average luciferase activity was calculated from the data of three independent wells.
Figure 3 Measurement of estrogenicity of tocols in vitro. […] MCF-7 extracts were analyzed for the presence of ERα by western blotting using GAPDH as a control. […] The ratio of ERα to GAPDH levels in each experiment was determined densitometrically and normalized to control value (taken to be 1). […] The relative expression of TGFα, PR, and Ps2 (TFF1) after 16 h was analyzed by quantitative RT-PCR. […]

ERα [2] = target: T1, ERα; settings: MCF-7 cells; 500 μM δ-TP or δ-TT, 100 nM E2; 3 h; western blot, GAPDH control
Experimental: (§1) Figure 3 Measurement of estrogenicity of tocols in vitro. (A) Dose–response curve of the effect of tocols on MCF-7 cells stably transfected with the ERE-β-globin-tk-Luc plasmid (MELN cells). […] Data shown are the mean values ± SEM from three independent experiments. […] MCF-7 extracts were analyzed for the presence of ERα by western blotting using GAPDH as a control. […] The western blot shown is representative of three independent experiments. The ratio of ERα to GAPDH levels in each experiment was determined densitometrically and normalized to control value (taken to be 1). (D) Effect of δ-tocols on estrogen response element-dependent luciferase activity in HELN cells, which are HELA cells transfected with either fully functional ERα or ERβ or their mutated versions containing a deletion the AB domain (ΔAB). […] Data shown are the mean values ± SEM from three independent experiments. […] Cells were treated with 500 μM δ-tocols in the presence or in the absence of ICI. The relative expression of TGFα, PR, and Ps2 (TFF1) after 16 h was analyzed by quantitative RT-PCR. Data shown are the mean values ± SEM from three independent experiments.

[3] = system: ER-dependent transcription in MELN cells; assay: ERE-luciferase reporter assay in MELN cells (MCF-7 stably transfected with ERE-β-globin-tk-Luc); type: cell-based, human; settings: 500 μM, maximal response = 10 nM E2
Description: MELN cells were established by transfecting ER(+) MCF-7 cells with the ERE-β-globin-tk-Luc-SV-Neo plasmid ([36]). HELN cells were generated by transfection of ER(−) HeLa cells with this plasmid. The HELN-ERα, HELN-ERβ, HELN-ΔAB-ERα, and HELN-ΔAB-ERβ cell lines then underwent a second transfection with the corresponding pSG5-puro plasmids (pSG5-ERα-puro, pSG5-ERβ-puro, pSG5-ΔAB-ERα-puro, and pSG5-ΔAB-ERβ-puro, respectively) and expressed wild-type or mutated ERα or ERβ ([39], [40]). […] Comparison of the activities toward hERα and hERβ with the truncated ΔAB-ERα and ΔAB-ERβ provides a powerful model to identify partial ER agonists (requiring ligand-independent AF-1 to induce maximal ER activation). […] Cells were grown routinely in DMEM growth medium supplemented with 5% FBS (Gibco BRL, Life Technologies, Cergy pontoise, France). Cells were incubated at 37°C in a humidified 5% CO2 incubator. For experiments, cells were grown for 5 days in phenol red-free medium, containing 6% dextran-coated charcoal-treated FCS (DCC-FCS) with penicillin–streptomycin. Medium was changed after 2 days. On day 5, cells were treated or not with the compounds, which were dissolved in ethanol. For each condition, 15 × 10^3 cells were seeded per well in 12-well plates and treated, as described above, for 8 h in a final volume of 0.5 ml. At the end of the treatment, cells were washed with PBS and lysed in 150 μl lysis buffer (Promega, Charbonnières, France). Luciferase activity was measured using the luciferase assay reagent (Promega), according to the manufacturer’s instructions. Protein concentrations were measured using the Bradford technique ([41]) to normalize the luciferase activity data. For each condition, average luciferase activity was calculated from the data of three independent wells.
as §1

T47D (ER(+)) cells = assay: Cell proliferation assay (sulforhodamine B); type: cell-based, human; settings: 500 μM δ-TP or δ-TT; 30 μM lovastatin; 6-day period
Experimental: (§2) MCF-7 (ER(+)), T47D (ER(+)), and MDA-MB-231 (ER(−)) cell lines were from ATCC. Cell lines were maintained at 37°C in a humidified incubator in a 5% CO2-enriched atmosphere in T-75 flasks. […] Cells were grown for 24 h before treatment in phenol red-free medium containing 5% DCC-FCS. Cells were seeded into 96-well plates at 2000 cells/well. Treatment media (150 μl/well) was added on the following day and replaced at 48-h intervals until the end of the experiment. Cell density was measured via the sulforhodamine B method ([43]) after 0, 2, 4, 6, and 8 days. The absorbance of SRB was measured directly at 490 nm in the 96-well plates using a multiskan® multisoft reader from Labsystem.

ERα [4] = target: T1, ERα; assay: Estrogen receptor-binding assay, competition with [3H]-17β-estradiol; parameters: expressed in transfected cells; host or cells: Cos-7; settings: extracts of cos-7 cells expressing human ERα; 2 nM [3H]-E2; tocols 1 μM to 1 mM; N.M. = not measurable
MCF-7 (ER(+)) cells = assay: Cell proliferation assay (sulforhodamine B); type: cell-based, human; settings: 500 μM δ-TP or δ-TT; 30 μM lovastatin; 6-day period
Experimental: as §2

Structure (SMILES)	ER-dependent luciferase activity through ERα (ERα [1])	degradation of ERα protein (ERα [2])	luciferase activity as % of the maximal ER-dependent response [3] [%]	effect on T47D cell proliferation (T47D (ER(+)) cells)	IC50 (ERα [4]) [µM]	effect on MCF-7 cell proliferation (MCF-7 (ER(+)) cells)
Cc1cc(O)cc2c1OC(C)(CCCC(C)CCCC(C)CCCC(C)C)CC2 (stereo not drawn) [δ-TP, δ-tocopherol]	activate ER-dependent luciferase activity	not degraded	76.5	significant stimulation	118 ± 15	significant stimulation
CC(C)=CCC/C(C)=C/CC/C(C)=C/CC[C@]1(C)CCc2cc(O)cc(C)c2O1 [δ-TT, δ-tocotrienol]	activate ER-dependent luciferase activity	not degraded	86.6	inhibited the proliferation	96 ± 6	inhibited the proliferation
